This is an account of results in paper PMC7412453, “SAR:s for the Antiparasitic Plant Metabolite Pulchrol. 1. The Benzyl Alcohol Functionality” (Molecules, 2020).

For data set [1], the system named is L. brasiliensis promastigotes. The data set is described as follows: Leishmanicidal activity against L. brasiliensis promastigotes (XTT). As to conditions: for IC50: read-out: L. brasiliensis IC50. The protocol: (§1) Evaluations against Leishmania parasites: Promastigotes of Leishmania-Leishmania: L. amazonensis, Clone 1, NHOM-BR-76-LTB-012 (Lma, donated by the Paul Sabatier Université, France) and Leishmania-Viannia: L. braziliensis M2904 C192 RJA (M2904, donated by Dr. Jorge Arévalo from Universidad Peruana Cayetano Heredia, Peru). All strains were cultured in Schneider’s insect medium, (pH 6.2) supplemented with 10% FBS and incubated at 26 °C. Medium changes were made every 72 h to maintain a viable parasitic population. Leishmanicidal activity was determined according to Williams with some modifications. Samples were dissolved in DMSO (maximum final concentration 1%) at 10 mg/mL. Promastigotes in logarithmic phase of growth, at the concentration 3 × 10^6 parasites/mL, were distributed (100 μL/well) in 96-well flat bottom microtiter plates. Samples with different concentrations (3.1–100 μg/mL) were added (100 μL). […] Assays were performed in triplicates. The microwell plates were incubated for 72 h at 26 °C. After incubation, a solution of XTT (1 mg/mL) in PBS (pH 7.0 at 37 °C) with PMS (0.06 mg/mL) was added (50 μL/well), and incubated for 3 h at 26 °C. The optical density of each well was measured and the IC50 values calculated.
(In general: Tetrazolium assays rely on reduction of a dye to a coloured formazan, in cell work by metabolically active cells.)

For the next data set, the system named is T. cruzi epimastigotes. Put plainly: Trypanocidal activity against T. cruzi epimastigotes (XTT). The class given is cell-based, Trypanosoma cruzi. As to conditions: for IC50: read-out: T. cruzi IC50; for selectivity ratio at 72 h: mouse (RAW 264.7 cells) / Trypanosoma cruzi (epimastigotes), read-out: T. cruzi SI (selectivity index, cytotoxicity/anti-protozoal activity). The protocol:
Trypanocidal activity was determined according to Muelas-Serrano with some modifications. […] Benznidazol (3.1–100 μg/mL) was used as the control drug. Assays were performed in triplicates.

The subject of data set [2] is Raw 264.7 murine macrophage cell line. Put plainly: Cytotoxicity in RAW cells (Resazurin). The class given is cell-based. As to conditions: RAW cells, 72 h at 37 °C, Resazurin, triplicate. The protocol: (§2) Evaluations against RAW cells: The Raw 264.7 murine macrophage cell line was purchased from the American Type Culture Collection (ATCC-TIB71). The cells were maintained in DMEM-HG medium supplemented with 10% fetal bovine serum, 100 U/mL of penicillin and 100 μg/mL of streptomycin, and sodium bicarbonate (2.2 g/L) in humidified atmosphere at 37 °C with 5% CO2. Samples were prepared as described above and added (in 100 μL DMSO) at different concentrations (6.2–200 μg/mL). Medium blank, control drugs and cell growth controls were included to evaluate cell viability. The plates were incubated for 72 h at 37 °C with 5% CO2. After incubation for the indicated time, the cells were washed, after which 10 μL of Resazurin reagent (2.0 mM) was added. They were further incubated at 37 °C for 3 h in a humidified incubator. The IC50 values were assessed using a fluorometric reader (540 nm excitation, 590 nm emission) and the Gen5 software. All assays were performed in triplicate.
On the technique in general: The colour change of resazurin is a common sign of viable cells or microbes.

Data set [3] relates to L. amazoniensis promastigotes. The data set is described as follows: Leishmanicidal activity against L. amazoniensis promastigotes (XTT). The settings on record: for IC50: read-out: L. amazoniensis IC50. How it is done: as §1, with “All” for “Evaluations against Leishmania parasites: Promastigotes of Leishmania-Leishmania: L. amazonensis, Clone 1, NHOM-BR-76-LTB-012 (Lma, donated by the Paul Sabatier Université, France) and Leishmania-Viannia: L. braziliensis M2904 C192 RJA (M2904, donated by Dr. Jorge Arévalo from Universidad Peruana Cayetano Heredia, Peru). All”

The nature of data set [4]: Cytotoxicity in RAW cells (Resazurin). Format: cell-based, murine. The settings on record: mouse. The protocol: as §2
Data set [5] concerns promastigotes of L. mexicana. On the set-up: method as in doi:10.1016/j.phytol.2009.10.002. As to conditions: not part of this investigation; cited from earlier work.
The mark [6] stands for this setting: promastigotes, 72 h at 26 °C, XTT, triplicates.
Where [7] appears, read: Trypanosoma cruzi, epimastigotes, 72 h at 26 °C, XTT, triplicates.
[8] abbreviates: L. brasiliensis SI (selectivity index, cytotoxicity/anti-protozoal activity), RAW cell IC50 / L. brasiliensis IC50.
[9] abbreviates: L. amazoniensis SI (selectivity index, cytotoxicity/anti-protozoal activity), RAW cell IC50 / L. amazoniensis IC50.

Where two headings read alike, the source gives them in different places. Some results are limits rather than exact numbers.

As to “2-Methoxy-6,6-dimethyl-9-(((4-methoxypentyl)oxy)methyl)-6H-benzo[c]chromene [3e]”, the “L. brasiliensis SI (selectivity index, cytotoxicity/anti-protozoal activity)” value in data set [1] (RAW cell IC50 / L. brasiliensis IC50) turned out to be 0.3. Moreover, the IC50 in data set [1] (setting [6]) turned out to be 127 ± 11.3 µM; in the data set on T. cruzi epimastigotes (epimastigotes, 72 h at 26 °C, XTT, triplicates), 9 ± 0.6 µM; in data set [2] it was 31.6 ± 5.6 µM; in data set [3] (setting [6]), 28.2 ± 8.5 µM. Further, the “T. cruzi SI (selectivity index, cytotoxicity/anti-protozoal activity)” value in the data set with T. cruzi epimastigotes (RAW cell IC50 / T. cruzi IC50) came to 3.5. Further, the “L. amazoniensis SI (selectivity index, cytotoxicity/anti-protozoal activity)” value in data set [3] (RAW cell IC50 / L. amazoniensis IC50) is recorded as 1.1.
As to `COc1ccc2c(c1)-c1cc(COC(=O)CCC3CCCC3)ccc1C(C)(C)O2` [4h, (2-Methoxy-6,6-dimethyl-6H-benzo[c]chromen-9-yl)methyl 3-cyclopentylpropanoate], the selectivity ratio at 72 h is 0.4 in data set [1], 6.1 in the data set on T. cruzi epimastigotes (RAW cell IC50 / T. cruzi IC50) and 1.6 in data set [3]. Moreover, the half-maximal inhibitory concentration (IC50) in data set [1] (72 h) was 122 ± 27.9 µM; with T. cruzi epimastigotes (setting [7]) it was 8.4 ± 3.3 µM; in data set [3] (Leishmania amazonensis, 72 h) it was 30.9 ± 3 µM. This compound also registered an IC50 at 72 h in data set [4] of 50.7 ± 17.7 µM.
As for `COc1ccc2c(c1)-c1cc(COC(=O)C3CCCCC3)ccc1C(C)(C)O2` [4i, (2-Methoxy-6,6-dimethyl-6H-benzo[c]chromen-9-yl)methyl cyclohexanecarboxylate], the selectivity ratio at 72 h in data set [1] is 2.1; in the data set with T. cruzi epimastigotes (RAW cell IC50 / T. cruzi IC50) it was 3.9; in data set [3] it was 1.3. In addition, the IC50 was 24.3 ± 0.8 µM in data set [1] (72 h); 13.1 ± 0.5 µM with T. cruzi epimastigotes (setting [7]); 40.5 ± 8.7 µM in data set [3] (Leishmania amazonensis, 72 h). Besides, the half-maximal inhibitory concentration (IC50) at 72 h in data set [4] was 51.3 ± 8.2 µM.
`C=CC(=O)OCc1ccc2c(c1)-c1cc(OC)ccc1OC2(C)C` [4j, (2-Methoxy-6,6-dimethyl-6H-benzo[c]chromen-9-yl)methyl acrylate]: the IC50 came to 5.7 ± 0.5 µM in data set [1] (72 h); 7.4 ± 0.9 µM in the data set with T. cruzi epimastigotes (setting [7]); 6.9 ± 1.7 µM in data set [3] (Leishmania amazonensis, 72 h). In addition, the selectivity ratio at 72 h (in data set [1] (setting [8]); with T. cruzi epimastigotes (RAW cell IC50 / T. cruzi IC50); in data set [3] (setting [9])) was greater than 5 in each case. Also, the half-inhibitory concentration (IC50) at 72 h in data set [4] turned out to be 40.1 ± 12.6 µM.
In the case of `COc1ccc2c(c1)-c1cc(COC(=O)c3ccco3)ccc1C(C)(C)O2` [4k, (2-Methoxy-6,6-dimethyl-6H-benzo[c]chromen-9-yl)methyl furan-2-carboxylate], the IC50 stood at 12.8 ± 0.1 µM in data set [1] (72 h); 3.8 ± 0.3 µM in the data set on T. cruzi epimastigotes (setting [7]); 12.8 ± 1.8 µM in data set [3] (Leishmania amazonensis, 72 h). Besides, the selectivity ratio at 72 h in data set [1] (setting [8]) worked out at 2.4; in the data set with T. cruzi epimastigotes (RAW cell IC50 / T. cruzi IC50), 7.9; in data set [3] (setting [9]), 2.4. Further, in data set [4], half-maximal inhibition (IC50 at 72 h) was put at 30.5 ± 3.6 µM.
For the compound `COc1ccc2c(c1)-c1cc(COC(=O)c3ccccc3)ccc1C(C)(C)O2` [4l, (2-Methoxy-6,6-dimethyl-6H-benzo[c]chromen-9-yl)methyl benzoate], the IC50 in data set [1] (72 h) was 21 ± 4.3 µM; in the data set with T. cruzi epimastigotes (setting [7]), 5.9 ± 0.5 µM; in data set [3] (Leishmania amazonensis, 72 h), 21.9 ± 7.7 µM. Moreover, the selectivity ratio at 72 h in data set [1] (setting [8]) was 1.3; with T. cruzi epimastigotes (RAW cell IC50 / T. cruzi IC50), 4.7; in data set [3] (setting [9]), 1.3. For the same compound, 27.8 ± 10.7 µM corresponded to half-maximal inhibition in data set [4] (IC50 at 72 h).
With `COc1ccc2c(c1)-c1cc(C=O)ccc1C(C)(C)O2` [5a, 2-Methoxy-6,6-dimethyl-6H-benzo[c]chromene-9-carbaldehyde], the IC50 in data set [1] (72 h) was 24.2 ± 7.5 µM; in the data set with T. cruzi epimastigotes (setting [7]), 24.2 ± 4.1 µM; in data set [3] (Leishmania amazonensis, 72 h) it was 29.8 ± 11.2 µM. For the same compound, the selectivity ratio at 72 h was found to be 1.6 in data set [1] (setting [8]), 1.6 in the data set on T. cruzi epimastigotes (RAW cell IC50 / T. cruzi IC50) and 1.3 in data set [3] (setting [9]). The IC50 at 72 h in data set [4] was 38.8 ± 3.7 µM.
Regarding `COc1ccc2c(c1)-c1cc(C(C)=O)ccc1C(C)(C)O2` [5b, 1-(2-Methoxy-6,6-dimethyl-6H-benzo[c]chromen-9-yl)ethan-1-one], the IC50 in data set [1] (72 h) is 28.3 ± 7.1 µM; in the data set with T. cruzi epimastigotes (setting [7]) it was 21.2 ± 9.2 µM; in data set [3] (Leishmania amazonensis, 72 h), 43.2 ± 8.2 µM. Also, the figures for the selectivity ratio at 72 h (in data set [1] (setting [8]); in the data set on T. cruzi epimastigotes (RAW cell IC50 / T. cruzi IC50); in data set [3] (setting [9])) were 1.1, 1.5 and 0.7, respectively. The same compound came in with an IC50 at 72 h in data set [4] of 31.9 ± 7.1 µM.
For `COc1ccc2c(c1)-c1cc(C(=O)O)ccc1C(C)(C)O2` [5c, 2-Methoxy-6,6-dimethyl-6H-benzo[c]chromene-9-carboxylic acid], the IC50 in data set [1] (72 h) was 65.1 ± 16.5 µM; in the data set on T. cruzi epimastigotes (setting [7]) it was 56.3 µM; in data set [3] (Leishmania amazonensis, 72 h), 199 µM. Besides, the selectivity ratio at 72 h came to 3.8 in data set [1] (setting [8]), 4.4 with T. cruzi epimastigotes (RAW cell IC50 / T. cruzi IC50) and 1.2 in data set [3] (setting [9]). Also, the IC50 at 72 h in data set [4] worked out at 246 ± 24.6 µM.
For `COC(=O)c1ccc2c(c1)-c1cc(OC)ccc1OC2(C)C` [5d, Methyl 2-Methoxy-6,6-dimethyl-6H-benzo[c]chromene-9-carboxylate], the IC50 worked out at 18.4 ± 5.7 µM in data set [1] (72 h); 31.8 ± 2.4 µM in the data set on T. cruzi epimastigotes (setting [7]); 59 ± 1.3 µM in data set [3] (Leishmania amazonensis, 72 h). Besides, the selectivity ratio at 72 h in data set [1] (setting [8]) was determined as 2.1; in the data set with T. cruzi epimastigotes (RAW cell IC50 / T. cruzi IC50), 1.2; in data set [3] (setting [9]), 0.7. The IC50 at 72 h in data set [4] came out at 38.2 ± 2.7 µM.
With `COc1ccc2c(c1)-c1cc(C(N)=O)ccc1C(C)(C)O2` [5e, 2-Methoxy-6,6-dimethyl-6H-benzo[c]chromene-9-carboxamide], the 50% inhibitory concentration (IC50) in data set [1] (72 h) was found to be 145 ± 43.1 µM; with T. cruzi epimastigotes (setting [7]), 134 ± 38.8 µM; in data set [3] (Leishmania amazonensis, 72 h) it was 121 ± 21.2 µM. Further, the selectivity ratio at 72 h in data set [1] (setting [8]) turned out to be 0.3; in the data set with T. cruzi epimastigotes (RAW cell IC50 / T. cruzi IC50), 0.4; in data set [3] (setting [9]) it was 0.4. Moreover, half-maximal inhibition in data set [4] (IC50 at 72 h) required 49.8 ± 17.7 µM.
Turning to `COc1ccc2c(c1)-c1cc(CO)ccc1C(C)(C)O2` [compound 1, (2-methoxy-6,6-dimethyl-6H-benzo[c]chromen-9-yl)methanol], the selectivity ratio at 72 h was 0.5 in data set [1], 1.7 in the data set with T. cruzi epimastigotes (RAW cell IC50 / T. cruzi IC50) and 0.4 in data set [3]. The IC50 was 59.2 ± 11.8 µM in data set [1] (72 h); 17 µM in data set [5]; 18.5 ± 9.6 µM in the data set on T. cruzi epimastigotes (Trypanosoma cruzi, 72 h); 77.7 ± 5.6 µM in data set [3] (Leishmania amazonensis, 72 h). Besides, the IC50 at 72 h in data set [4] (RAW cells, 72 h at 37 °C, Resazurin, triplicate, read-out: Cytotoxicity IC50) stood at 30.7 ± 1.1 µM.
In the case of `COc1ccc2c(c1)-c1cc(C(=N)NO)ccc1C(C)(C)O2` [compound 6, N-hydroxy-2-methoxy-6,6-dimethyl-6H-benzo[c]chromene-9-carboximidamide], the IC50 in data set [1] (72 h) was 52 ± 18.6 µM; in the data set on T. cruzi epimastigotes (setting [7]), 33.4 ± 14.9 µM; in data set [3] (Leishmania amazonensis, 72 h), 52 ± 16.7 µM. Moreover, the selectivity ratio at 72 h was determined as 0.5 in data set [1] (setting [8]), 0.8 in the data set on T. cruzi epimastigotes (RAW cell IC50 / T. cruzi IC50) and 0.5 in data set [3] (setting [9]). Also, the IC50 at 72 h in data set [4] was found to be 26.4 ± 1.5 µM.

For orientation: IC50 means the concentration at which inhibition is half-maximal.
